Patent US20250169499A1, “IMAZAMOX AND GLYPHOSATE FOR CONTROLLING DIGITARIA INSULARIS” (BASF AGROCHEMICAL PRODUCTS B.V., priority 2021, published 2025)

Key:
Format in all cases: in vivo, Digitaria insularis
Settings in all cases: DASH 0.5% v/v
[1] = tested on: D. insularis (perennial); assay: Field trial, post-emergence application A (desiccation 30 days before soybean sowing), visual weed control rated 14 DAA-A
Procedure: (§1) A soil sample from the experimental site was analyzed and provided pH H2O 5.3; 0 cmolc H+Al^+3/dm^3; 4.2 cmolc/dm^3 Ca^+2; 1.6 cmolc/dm^3 Mg^+2; 242 mg/dm^3 K^+; 42.3 mg/dm^3 P; 18% sand; 15% silt and 67% clay.
(§2) For all herbicide applications, the applications were made using a backpack sprayer that was pressurized by CO2 with six flat fan nozzles XR110.015 at 3 bar, which caused the application volume to reach 150 L ha^−1.
(§3) Glyphosate was used as a commercially available soluble concentrate (SL)-formulation containing glyphosate as its potassium salt (480 g/l of glyphosate in its acid form), which is commercially available under the trade name Roundup Transorb R.
(§4) Imazamox was used as a commercially available water dispersible granule (WG)-formulation containing 700 g/Kg of imazamox, which is commercially available under the trade name Raptor® 70 DG.
(§5) In table 1, all details related to mode of application of herbicides, and climatic conditions during herbicide application are listed.
Crop sowing (in case of A and B; in case of A*, no crops were sown) was carried out under a no-tillage system, by distributing 16 seeds per meter of a M6410® soybean variety in all treatments with Raptor® 70 DG and also 16 seeds m^−1 of a second soybean cultivar (BMX Potência RR) in the remaining treatments. Immediately before sowing, the seeds of both cultivars were treated with a formulation of fipronil, pyraclostrobin and thiophanate methyl (Standak® Top; 200 mL per ha). Crop fertilization was performed with 300 kg ha^−1 of a commercial N-P-K formulation (02-20-18). […]
After the first application (application “A” and “A*”), two evaluations were performed on the effect of treatments on the weeds emerged at that application. For those evaluations, the infestation of the untreated control is used as reference. These assessments for the damage caused by the herbicides A and B, and the binary herbicide combination thereof were carried out at 14 days after application “A” (14 DAA-A) or 35 days after application “A*” (35-DAA-A*) using a scale from 0 to 100%, compared to the untreated control plants. Here, 0 means no damage and 100 means complete destruction of the plants.
The value E, which is to be expected if the activity of the individual compounds is just additive, was calculated using the method of S. R. Colby (1967) “Calculating synergistic and antagonistic responses of herbicide combinations”, Weeds 15, p. 22 ff. For two component mixtures the value E was calculated by the following formula […]
(§6) If the value observed in this manner is higher than the value E calculated according to Colby, a synergistic effect is present. […]

[2] = tested on: D. insularis (flowering); assay: Field trial, post-emergence application B (desiccation 0 days before soybean sowing), visual weed control rated 28 DAA-B
Procedure: as §1, §2, §3, §4, §5
Crop sowing (in case of A and B; in case of A*, no crops were sown) was carried out under a no-tillage system, by distributing 16 seeds per meter of a M6410® soybean variety in all treatments with Raptor® 70 DG and also 16 seeds m^−1 of a second soybean cultivar (BMX Potência RR) in the remaining treatments. Immediately before sowing, the seeds of both cultivars were treated with a formulation of fipronil, pyraclostrobin and thiophanate methyl (Standak® Top; 200 mL per ha). Crop fertilization was performed with 300 kg ha^−1 of a commercial N-P-K formulation (02-20-18).
For the post-emergence treatment, the test plants were first grown to a height of 3 to 20 cm, depending on the plant habit, and only then treated. Here, the herbicidal compositions were suspended or emulsified in water as distribution medium and sprayed using finely distributing nozzles.
Herbicide B was formulated as 10% by weight strength suspension concentrate and introduced to the spray liquor with the amount of solvent system used for applying the active compound. […]
(§7) The value E, which is to be expected if the activity of the individual compounds is just additive, was calculated using the method of S. R. Colby (1967) “Calculating synergistic and antagonistic responses of herbicide combinations”, Weeds 15, p. […] For two component mixtures the value E was calculated by the following formula […]
as §6
(§8) The results are summarized in the following tables 2, 3 and 4 that show the herbicidal activity of the individual actives and of their combinations in post-emergence application assessed 14, 28 and 35 day after treatment (DAT), respectively.

[3] = tested on: D. insularis (early stage - 2 to 6 leaves); assay: Field trial, post-emergence application A* (no soybean sowing), visual weed control rated 35 DAA-A*
Procedure: as §1, §2
Glyphosate was used as a commercially available soluble concentrate (SL)-formulation containing glyphosate as its potassium salt (480 g/l of glyphosate in its acid form), which is commercially available under the trade name Roundup Transorb R. […]
as §7, §6, §8

`O=C(O)CNCP(=O)(O)O` [Herbicide A, N-(phosphonomethyl)glycine] was tested, and the “Control (%) of D. insularis (perennial)” value ([1]; dose 1080 g ai/ha, scale 0-100% vs untreated) was 5%, the “Control (%) of D. insularis (flowering)” value ([2]; dose 1440 g ai/ha) was 45% and the “Control (%) of D. insularis (early stage - 2 to 6 leaves)” value ([3]; dose 1080 g ai/ha) was 5%.
`COCc1cnc(C2=NC(C)(C(C)C)C(=O)N2)c(C(=O)O)c1` (stereo not shown) [Herbicide B, 2-(4-isopropyl-4-methyl-5-oxo-2-imidazolin-2-yl)-5-(methoxymethyl)nicotinic acid] was tested, and the “Control (%) of D. insularis (perennial)” value ([1]; dose 49 g ai/ha) was 13%, the “Control (%) of D. insularis (perennial)” value ([1]; dose 70 g ai/ha) was 20% and the “Control (%) of D. insularis (perennial)” value ([1]; dose 91 g ai/ha) was 20%. The “Control (%) of D. insularis (flowering)” value ([2]; dose 70 g ai/ha) was 40%, the “Control (%) of D. insularis (flowering)” value ([2]; dose 105 g ai/ha) was 40% and the “Control (%) of D. insularis (flowering)” value ([2]; dose 140 g ai/ha) was 50%. The “Control (%) of D. insularis (early stage - 2 to 6 leaves)” value ([3]; dose 105 g ai/ha) was 13%.
